Assay results as given in patent publication US9187455B2, “Substituted pyridazines as PDE10A inhibitors” (Hoffmann-La Roche Inc., priority 2009, dated 2015).

System: rats
Assay: not given
Settings: sub-chronic treatment with PCP, Rodefer et al. 2005; cited from earlier work

SMILES	effect on deficits in extra-dimensional shift learning
COc1ccc(Cc2nccc3cc(OC)c(OC)cc23)cc1OC [papaverine, Papaverine]	attenuate the deficits in the extra-dimensional shift learning

Target: T1, PDE10A2 (Homo sapiens, UniProt Q9Y233)
T1 construct: residues serine 449 to aspartate 789; His6 (H6) with Gateway linker and thrombin cleavage site (N, cleaved yes); made in house; host or cells: E. coli BL21(DE3) pLysS
Assay: PDE10A2 Scintillation Proximity Assay (SPA), [3H]-cGMP hydrolysis
Type: biochemical
Settings: catalytic domain of human PDE10A2 (S449-D789), 0.25 nM enzyme, 50 nM cGMP + 50 nM [3H]-cGMP, 30 minutes at room temperature; read-out: PDE10A2 inhibition IC50
Procedure, shortened: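 Recombinant human PDE10A2 catalytic domain (S449–D789, E. coli-expressed), 0.25 nM, with 50 nM cGMP plus 50 nM [3H]-cGMP in 20 mM HEPES/10 mM MgCl2, pH 7.5, 30 min at room temperature. Stopped with YSi-SPA beads in zinc sulphate; counts over a compound concentration range gave IC50.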

T1 sequence (Q9Y233 715-1055): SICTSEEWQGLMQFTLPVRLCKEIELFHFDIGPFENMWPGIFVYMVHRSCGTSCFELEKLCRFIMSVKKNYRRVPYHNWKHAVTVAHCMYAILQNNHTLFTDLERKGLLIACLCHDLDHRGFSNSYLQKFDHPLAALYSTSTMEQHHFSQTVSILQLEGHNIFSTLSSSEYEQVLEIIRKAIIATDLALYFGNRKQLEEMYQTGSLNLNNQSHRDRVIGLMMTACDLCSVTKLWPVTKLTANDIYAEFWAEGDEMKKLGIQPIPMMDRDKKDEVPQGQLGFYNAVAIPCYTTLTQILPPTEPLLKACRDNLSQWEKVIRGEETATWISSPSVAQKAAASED

IC50	SMILES
169 nM	O=c1ccn(-c2cccnc2)nc1-c1ccnn1-c1cccc2ncccc12 [Example 84, 1-Pyridin-3-yl-3-(2-quinolin-5-yl-2H-pyrazol-3-yl)-1H-pyridazin-4-one]
46 nM	Cc1cc(-n2ccc(=O)c(-c3ccnn3-c3cccc4cnccc34)n2)ccn1 [Example 85, 3-(2-Isoquinolin-5-yl-2H-pyrazol-3-yl)-1-(2-methyl-pyridin-4-yl)-1H-pyridazin-4-one]
50 nM	O=c1ccn(-c2cccnc2)nc1-c1ccnn1-c1cccc2cnccc12 [Example 86, 3-(2-Isoquinolin-5-yl-2H-pyrazol-3-yl)-1-pyridin-3-yl-1H-pyridazin-4-one]
477 nM	N#Cc1cncc(-n2ccc(=O)c(-c3ccnn3-c3ccccc3F)n2)c1 [Example 87, 5-{3-[2-(2-Fluoro-phenyl)-2H-pyrazol-3-yl]-4-oxo-4H-pyridazin-1-yl}-nicotinonitrile]
1130 nM	Cc1cc(-n2nccc2-c2nn(-c3ccc(Cl)nc3)ccc2=O)ccn1 [Example 88, 1-(6-Chloro-pyridin-3-yl)-3-[2-(2-methyl-pyridin-4-yl)-2H-pyrazol-3-yl]-1H-pyridazin-4-one]
46 nM	O=c1ccn(-c2cncc(OC(F)F)c2)nc1-c1ccnn1-c1cccc2ncccc12 [Example 89, 1-(5-Difluoromethoxy-pyridin-3-yl)-3-(2-quinolin-5-yl-2H-pyrazol-3-yl)-1H-pyridazin-4-one]
90 nM	Cc1cncc(-n2ccc(=O)c(-c3ccnn3-c3ccccc3F)n2)c1 [Example 90, 3-[2-(2-Fluoro-phenyl)-2H-pyrazol-3-yl]-1-(5-methyl-pyridin-3-yl)-1H-pyridazin-4-one]
32 nM	O=c1ccn(-c2ccncc2)nc1-c1ccnn1-c1ccnc2cc(Cl)ccc12 [Example 91, 3-[2-(7-Chloro-quinolin-4-yl)-2H-pyrazol-3-yl]-1-pyridin-4-yl-1H-pyridazin-4-one]
206 nM	Cc1cc(-n2ccc(=O)c(-c3ccnn3-c3ccccc3F)n2)ccn1 [Example 93, 3-[2-(2-Fluoro-phenyl)-2H-pyrazol-3-yl]-1-(2-methyl-pyridin-4-yl)-1H-pyridazin-4-one]
281 nM	O=c1ccn(-c2ccnc(C(F)(F)F)c2)nc1-c1ccnn1-c1ccccc1F [Example 94, 3-[2-(2-Fluoro-phenyl)-2H-pyrazol-3-yl]-1-(2-trifluoromethyl-pyridin-4-yl)-1H-pyridazin-4-one]
73 nM	O=c1ccn(-c2ccnc(C(F)(F)F)c2)nc1-c1ccnn1-c1cccc(Cl)c1 [Example 95, 3-[2-(3-Chloro-phenyl)-2H-pyrazol-3-yl]-1-(2-trifluoromethyl-pyridin-4-yl)-1H-pyridazin-4-one]
308 nM	N#Cc1cc(-n2ccc(=O)c(-c3ccnn3-c3ccccc3F)n2)ccn1 [Example 96, 4-{3-[2-(2-Fluoro-phenyl)-2H-pyrazol-3-yl]-4-oxo-4H-pyridazin-1-yl}-pyridine-2-carbonitrile]
17 nM	O=c1ccn(-c2ccncc2)nc1-c1ccnn1-c1cccc(Br)c1 [Example 97, 3-[2-(3-Bromo-phenyl)-2H-pyrazol-3-yl]-1-pyridin-4-yl-1H-pyridazin-4-one]
18 nM	C#Cc1cccc(-n2nccc2-c2nn(-c3ccncc3)ccc2=O)c1 [Example 99, 3-[2-(3-Ethynyl-phenyl)-2H-pyrazol-3-yl]-1-pyridin-4-yl-1H-pyridazin-4-one]
31 nM	O=c1ccn(-c2ccc3cnccc3c2)nc1-c1ccnn1-c1ccccc1F [Example 100, 3-[2-(2-Fluoro-phenyl)-2H-pyrazol-3-yl]-1-isoquinolin-6-yl-1H-pyridazin-4-one]
41 nM	O=c1ccn(-c2ccc3cnccc3c2)nc1-c1ccnn1-c1cccc(F)c1 [Example 101, 3-[2-(3-Fluoro-phenyl)-2H-pyrazol-3-yl]-1-isoquinolin-6-yl-1H-pyridazin-4-one]
20 nM	O=c1ccn(-c2ccc3ncccc3c2)nc1-c1ccnn1-c1ccccc1F [Example 102, 3-[2-(2-Fluoro-phenyl)-2H-pyrazol-3-yl]-1-quinolin-6-yl-1H-pyridazin-4-one]
7 nM	O=c1ccn(-c2ccc3ncccc3c2)nc1-c1ccnn1-c1cccc(Cl)c1 [Example 103, 3-[2-(3-Chloro-phenyl)-2H-pyrazol-3-yl]-1-quinolin-6-yl-1H-pyridazin-4-one]
